Assays:
Assay type in all cases: in vivo
[1] = test system: ducksalad (Heteranthera limosa); test: Test B flooded paddy test, plant response rating; conditions: Heteranthera limosa, 312 h; 250 g ai/ha; Flood; scale of 0 to 100 where 0 is no effect and 100 is complete control; 13 to 15 days
In short: (§1)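 Flooded 3 cm over soil; compound into paddy water; depth kept constant. Greenhouse 13–15 d.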

[2] = test system: rice (Oryza sativa); test: Test B flooded paddy test, plant response rating; conditions: Oryza sativa, 312 h; 250 g ai/ha; Flood; scale of 0 to 100 where 0 is no effect and 100 is complete control; 13 to 15 days
In short: as §1

[3] = test system: sedge, umbrella (small-flower umbrella sedge, Cyperus difformis); test: Test B flooded paddy test, plant response rating; conditions: Cyperus difformis, 312 h; 250 g ai/ha; Flood; scale of 0 to 100 where 0 is no effect and 100 is complete control; 13 to 15 days
In short: as §1

[4] = test system: blackgrass (Alopecurus myosuroides); test: Test C preemergence, plant response rating; conditions: Alopecurus myosuroides, pre-emergence, Preemergence
In short: (§2)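 After sowing in loam–sand blend or silt loam, pots were sprayed preemergence; separately grown 1- to 4-leaf plants were sprayed postemergence. Following 13 to 15 d under greenhouse conditions, injury was rated visually on a 0 to 100 scale.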

[5] = test system: corn (Zea mays); test: Test C preemergence, plant response rating; conditions: Zea mays, pre-emergence, Preemergence
In short: as §2

[6] = test system: crabgrass, large (large crabgrass, Digitaria sanguinalis); test: Test C preemergence, plant response rating; conditions: Digitaria sanguinalis, pre-emergence, Preemergence
In short: as §2

[7] = test system: foxtail, giant (giant foxtail, Setaria faberii); test: Test C preemergence, plant response rating; conditions: Setaria faberi, pre-emergence, Preemergence
In short: as §2

[8] = test system: lambsquarters (Chenopodium album); test: Test C preemergence, plant response rating; conditions: Chenopodium album, pre-emergence, Preemergence
In short: as §2

[9] = test system: morningglory (Ipomoea coccinea); test: Test C preemergence, plant response rating; conditions: Ipomoea, pre-emergence, Preemergence
In short: as §2

[10] = test system: nutsedge, yellow (yellow nutsedge, Cyperus esculentus); test: Test C preemergence, plant response rating; conditions: Cyperus, pre-emergence, Preemergence
In short: as §2

[11] = test system: oilseed rape (Brassica napus); test: Test C preemergence, plant response rating; conditions: Brassica napus, pre-emergence, Preemergence
In short: as §2

[12] = test system: ragweed (common ragweed, Ambrosia elatior); test: Test C preemergence, plant response rating; conditions: Ambrosia artemisiifolia, pre-emergence, Preemergence
In short: as §2

[13] = test system: ryegrass, Italian (Italian ryegrass, Lolium multiflorum); test: Test C preemergence, plant response rating; conditions: Lolium multiflorum, pre-emergence, Preemergence
In short: as §2

[14] = test system: soybean (Glycine max); test: Test C preemergence, plant response rating; conditions: Glycine max, pre-emergence, Preemergence
In short: as §2

[15] = test system: velvetleaf (Abutilon theophrasti); test: Test C preemergence, plant response rating; conditions: Abutilon theophrasti, pre-emergence, Preemergence
In short: as §2

[16] = test system: waterhemp (common waterhemp, Amaranthus rudis); test: Test C preemergence, plant response rating; conditions: Amaranthus tuberculatus, pre-emergence, Preemergence
In short: as §2

[17] = test system: wheat (winter wheat, Triticum aestivum); test: Test C preemergence, plant response rating; conditions: Triticum aestivum, pre-emergence, Preemergence
In short: as §2

[18] = test system: pigweed (Amaranthus retroflexus); test: Test C preemergence, plant response rating; conditions: Preemergence

C=CCCOC(=O)c1c(Br)cccc1Oc1ncc(Cl)cn1 [Compound 21, 3-buten-1-yl 2-bromo-6-[(5-chloro-2-pyrimidinyl)oxy]benzoate]
pest or weed control at 250 g/ha [1]: 70%
plant injury at 250 g/ha [2]: 0%
pest or weed control at 250 g/ha [3]: 100%
pest or weed control at 62 g/ha ([4]; 62 g ai/ha, scale of 0 to 100): 55%
pest or weed control at 125 g/ha ([4]; 125 g ai/ha, scale of 0 to 100): 90%
pest or weed control at 16 g/ha ([4]; 16 g ai/ha, scale 0 to 100): 5%
pest or weed control at 31 g/ha ([4]; 31 g ai/ha, scale 0 to 100): 35%
Corn plant response rating (crop injury, 0 = no effect, 100 = complete kill) at 62 g/ha ([5]; 62 g ai/ha, scale of 0 to 100): 5%
Corn plant response rating (crop injury, 0 = no effect, 100 = complete kill) at 125 g/ha ([5]; 125 g ai/ha, scale of 0 to 100): 20%
Corn plant response rating (crop injury, 0 = no effect, 100 = complete kill) at 16 g/ha ([5]; 16 g ai/ha, scale 0 to 100): 0%
Corn plant response rating (crop injury, 0 = no effect, 100 = complete kill) at 31 g/ha ([5]; 31 g ai/ha, scale 0 to 100): 0%
pest or weed control at 62 g/ha ([6]; 62 g ai/ha, scale of 0 to 100): 98%
pest or weed control at 125 g/ha ([6]; 125 g ai/ha, scale of 0 to 100): 100%
pest or weed control at 16 g/ha ([6]; 16 g ai/ha, scale 0 to 100): 20%
pest or weed control at 31 g/ha ([6]; 31 g ai/ha, scale 0 to 100): 75%
pest or weed control at 62 g/ha ([7]; 62 g ai/ha, scale of 0 to 100): 95%
pest or weed control at 125 g/ha ([7]; 125 g ai/ha, scale of 0 to 100): 90%
pest or weed control at 16 g/ha ([7]; 16 g ai/ha, scale 0 to 100): 20%
pest or weed control at 31 g/ha ([7]; 31 g ai/ha, scale 0 to 100): 80%
pest or weed control at 125 g/ha ([8]; 125 g ai/ha, scale of 0 to 100): 70%
pest or weed control at 16 g/ha ([8]; 16 g ai/ha, scale 0 to 100): 0%
pest or weed control at 31 g/ha ([8]; 31 g ai/ha, scale 0 to 100): 30%
pest or weed control at 62 g/ha ([8]; 62 g ai/ha, scale 0 to 100): 25%
pest or weed control at 125 g/ha ([9]; 125 g ai/ha, scale of 0 to 100): 10%
pest or weed control at 16 g/ha ([9]; 16 g ai/ha, scale 0 to 100): 0%
pest or weed control at 31 g/ha ([9]; 31 g ai/ha, scale 0 to 100): 0%
pest or weed control at 62 g/ha ([9]; 62 g ai/ha, scale 0 to 100): 5%
pest or weed control at 125 g/ha ([10]; 125 g ai/ha, scale of 0 to 100): 0%
pest or weed control at 16 g/ha ([10]; 16 g ai/ha, scale 0 to 100): 0%
pest or weed control at 31 g/ha ([10]; 31 g ai/ha, scale 0 to 100): 0%
pest or weed control at 62 g/ha ([10]; 62 g ai/ha, scale 0 to 100): 0%
plant injury at 125 g/ha ([11]; 125 g ai/ha, scale of 0 to 100): 100%
plant injury at 16 g/ha ([11]; 16 g ai/ha, scale 0 to 100): 0%
plant injury at 31 g/ha ([11]; 31 g ai/ha, scale 0 to 100): 0%
plant injury at 62 g/ha ([11]; 62 g ai/ha, scale 0 to 100): 75%
pest or weed control at 125 g/ha ([12]; 125 g ai/ha, scale of 0 to 100): 0%
pest or weed control at 16 g/ha ([12]; 16 g ai/ha, scale 0 to 100): 0%
pest or weed control at 31 g/ha ([12]; 31 g ai/ha, scale 0 to 100): 0%
pest or weed control at 62 g/ha ([12]; 62 g ai/ha, scale 0 to 100): 0%
pest or weed control at 125 g/ha ([13]; 125 g ai/ha, scale of 0 to 100): 90%
pest or weed control at 16 g/ha ([13]; 16 g ai/ha, scale 0 to 100): 0%
pest or weed control at 31 g/ha ([13]; 31 g ai/ha, scale 0 to 100): 10%
pest or weed control at 62 g/ha ([13]; 62 g ai/ha, scale 0 to 100): 15%
plant injury at 125 g/ha ([14]; 125 g ai/ha, scale of 0 to 100): 0%
plant injury at 16 g/ha ([14]; 16 g ai/ha, scale 0 to 100): 0%
plant injury at 31 g/ha ([14]; 31 g ai/ha, scale 0 to 100): 0%
plant injury at 62 g/ha ([14]; 62 g ai/ha, scale 0 to 100): 0%
pest or weed control at 125 g/ha ([15]; 125 g ai/ha, scale of 0 to 100): 100%
pest or weed control at 16 g/ha ([15]; 16 g ai/ha, scale 0 to 100): 10%
pest or weed control at 31 g/ha ([15]; 31 g ai/ha, scale 0 to 100): 40%
pest or weed control at 62 g/ha ([15]; 62 g ai/ha, scale 0 to 100): 70%
pest or weed control at 125 g/ha ([16]; 125 g ai/ha, scale of 0 to 100): 98%
pest or weed control at 16 g/ha ([16]; 16 g ai/ha, scale 0 to 100): 70%
pest or weed control at 31 g/ha ([16]; 31 g ai/ha, scale 0 to 100): 75%
pest or weed control at 62 g/ha ([16]; 62 g ai/ha, scale 0 to 100): 95%
plant injury at 125 g/ha ([17]; 125 g ai/ha, scale of 0 to 100): 0%
plant injury at 16 g/ha ([17]; 16 g ai/ha, scale 0 to 100): 0%
plant injury at 31 g/ha ([17]; 31 g ai/ha, scale 0 to 100): 0%
plant injury at 62 g/ha ([17]; 62 g ai/ha, scale 0 to 100): 0%
Plant response rating, Pigweed ([18]; 125 g ai/ha, scale of 0 to 100): 100
Plant response rating, Pigweed ([18]; 16 g ai/ha, scale 0 to 100): 5
Plant response rating, Pigweed ([18]; 31 g ai/ha, scale 0 to 100): 55
Plant response rating, Pigweed ([18]; 62 g ai/ha, scale 0 to 100): 98
